# Data published in publication PMC11822212, “High-throughput screening identifies Aurora kinase B as a critical therapeutic target for Merkel cell carcinoma” (Nature Communications, 2025).
# Where “and” joins values, the source holds several entries; their conditions need not be identical. Equal entries are not always repeated. Where two headings read alike, the source gives them in different places.
# What was measured:
# Assay in all cases: qHTS cell viability (CellTiter-Glo, 72 h; primary and follow-up small molecule screen)
# Format in all cases: cell-based, human
# [1] = system: MCC13 cells (VN-MCC)
# [2] = system: MKL-2 cells (VP-MCC)
# [3] = system: WAGA cells (VP-MCC)
# [4] = system: UISO cells (VN-MCC)
# [5] = system: MCC26 cells (VN-MCC)
# [6] = system: MKL-1 cells (VP-MCC)
# [7] = follow-up screen, MCC13, replicate 1
# [8] = follow-up screen, MCC13, replicate 2
# [9] = follow-up screen, MCC13, replicate 3
# [10] = follow-up screen, MKL-2, replicate 1
# [11] = follow-up screen, MKL-2, replicate 2
# [12] = follow-up screen, MKL-2, replicate 3
# [13] = follow-up screen, WAGA, replicate 1
# [14] = follow-up screen, WAGA, replicate 2
# [15] = follow-up screen, WAGA, replicate 3
# [16] = follow-up screen, UISO, replicate 1
# [17] = follow-up screen, UISO, replicate 2
# [18] = follow-up screen, UISO, replicate 3
# [19] = follow-up screen, MCC26, replicate 1
# [20] = follow-up screen, MCC26, replicate 2
# [21] = follow-up screen, MCC26, replicate 3
# [22] = follow-up screen, MKL-1, replicate 1
# [23] = follow-up screen, MKL-1, replicate 2
# [24] = follow-up screen, MKL-1, replicate 3
SMILES,Area under the dose-response curve (AUC) MCC13 Replicate 1 [1],Area under the dose-response curve (AUC) MCC13 Replicate 2 [1],Area under the dose-response curve (AUC) MCC13 Replicate 3 [1],Area under the dose-response curve (AUC) MKL-2 Replicate 1 [2],Area under the dose-response curve (AUC) MKL-2 Replicate 2 [2],Area under the dose-response curve (AUC) MKL-2 Replicate 3 [2],Area under the dose-response curve (AUC) WAGA Replicate 1 [3],Area under the dose-response curve (AUC) WAGA Replicate 2 [3],Area under the dose-response curve (AUC) WAGA Replicate 3 [3],Area under the dose-response curve (AUC) UISO Replicate 1 [4],Area under the dose-response curve (AUC) UISO Replicate 2 [4],Area under the dose-response curve (AUC) UISO Replicate 3 [4],Area under the dose-response curve (AUC) MCC26 Replicate 1 [5],Area under the dose-response curve (AUC) MCC26 Replicate 2 [5],Area under the dose-response curve (AUC) MCC26 Replicate 3 [5],Area under the dose-response curve (AUC) MKL-1 Replicate 1 [6],Area under the dose-response curve (AUC) MKL-1 Replicate 2 [6],Area under the dose-response curve (AUC) MKL-1 Replicate 3 [6],"Area under the dose-response curve (AUC) MCC13 Replicate 1 [1, 7]","Area under the dose-response curve (AUC) MCC13 Replicate 2 [1, 8]",further results
"O.O=c1c2ccc(O)c(O)c2oc2c(O)c(O)ccc12 [3,4,5,6-Tetrahydroxyxanthone hydrate]",–,–,–,–,–,–,–,–,–,–,–,–,–,–,–,–,–,–,–,–,Area under the dose-response curve (AUC) [1]: 500.0 and 470.6 and 462.5; Area under the dose-response curve (AUC) [2]: 454.0 and 468.2 and 444.8; Area under the dose-response curve (AUC) [3]: 510.8 and 453.0 and 432.4; Area under the dose-response curve (AUC) [4]: 455.2 and 451.1 and 430.7; Area under the dose-response curve (AUC) [5]: 448.2 and 449.4 and 459.1; Area under the dose-response curve (AUC) [6]: 474.6 and 473.6 and 453.4
CC[C@@]1(O)C(=O)OCc2c1cc1n(c2=O)Cc2cc3cc(O)ccc3nc2-1 [10-hydroxycamptothecin],287.3,291.9,277.2,184.7,164.5,246.0,195.8,197.2,184.4,187.9,199.3,183.4,260.5,244.0,250.0,214.0,217.0,223.0,–,–,–
Nc1ncnc2c1ncn2[C@@H]1O[C@H](CO)[C@@H](O)[C@H]1O [Adenosine],–,–,–,–,–,–,–,–,–,–,–,–,–,–,–,–,–,–,550.6,498.0,"Area under the dose-response curve (AUC) MCC13 Replicate 3 [1, 9]: 487.2; Area under the dose-response curve (AUC) MKL-2 Replicate 1 [2, 10]: 483.1; Area under the dose-response curve (AUC) MKL-2 Replicate 2 [2, 11]: 500.4; Area under the dose-response curve (AUC) MKL-2 Replicate 3 [2, 12]: 489.0; Area under the dose-response curve (AUC) WAGA Replicate 1 [3, 13]: 557.9; Area under the dose-response curve (AUC) WAGA Replicate 2 [3, 14]: 476.1; Area under the dose-response curve (AUC) WAGA Replicate 3 [3, 15]: 490.2; Area under the dose-response curve (AUC) UISO Replicate 1 [4, 16]: 514.9; Area under the dose-response curve (AUC) UISO Replicate 2 [4, 17]: 502.8; Area under the dose-response curve (AUC) UISO Replicate 3 [4, 18]: 486.4; Area under the dose-response curve (AUC) MCC26 Replicate 1 [5, 19]: 484.4; Area under the dose-response curve (AUC) MCC26 Replicate 2 [5, 20]: 450.7; Area under the dose-response curve (AUC) MCC26 Replicate 3 [5, 21]: 501.0; Area under the dose-response curve (AUC) MKL-1 Replicate 1 [6, 22]: 523.5; Area under the dose-response curve (AUC) MKL-1 Replicate 2 [6, 23]: 521.0; Area under the dose-response curve (AUC) MKL-1 Replicate 3 [6, 24]: 519.8"
CCC(=O)CCCCC[C@@H]1NC(=O)[C@H]2CCCCN2C(=O)[C@H]([C@@H](C)CC)NC(=O)[C@H](Cc2cn(OC)c3ccccc23)NC1=O [Apicidin],352.8,341.2,320.0,250.3,267.1,303.9,264.4,253.3,235.6,287.8,286.2,272.4,312.3,327.5,296.4,315.8,299.2,285.0,–,–,–
COc1ccc(C(=O)CC(=O)c2ccc(C(C)(C)C)cc2)cc1 [Avobenzone],–,–,–,–,–,–,–,–,–,–,–,–,–,–,–,–,–,–,464.5,464.7,"Area under the dose-response curve (AUC) MCC13 Replicate 3 [1, 9]: 487.0; Area under the dose-response curve (AUC) MKL-2 Replicate 1 [2, 10]: 491.6; Area under the dose-response curve (AUC) MKL-2 Replicate 2 [2, 11]: 475.6; Area under the dose-response curve (AUC) MKL-2 Replicate 3 [2, 12]: 463.7; Area under the dose-response curve (AUC) WAGA Replicate 1 [3, 13]: 495.5; Area under the dose-response curve (AUC) WAGA Replicate 2 [3, 14]: 492.2; Area under the dose-response curve (AUC) WAGA Replicate 3 [3, 15]: 489.4; Area under the dose-response curve (AUC) UISO Replicate 1 [4, 16]: 448.1; Area under the dose-response curve (AUC) UISO Replicate 2 [4, 17]: 466.1; Area under the dose-response curve (AUC) UISO Replicate 3 [4, 18]: 426.5; Area under the dose-response curve (AUC) MCC26 Replicate 1 [5, 19]: 418.2; Area under the dose-response curve (AUC) MCC26 Replicate 2 [5, 20]: 424.5; Area under the dose-response curve (AUC) MCC26 Replicate 3 [5, 21]: 411.6; Area under the dose-response curve (AUC) MKL-1 Replicate 1 [6, 22]: 452.4; Area under the dose-response curve (AUC) MKL-1 Replicate 2 [6, 23]: 457.3; Area under the dose-response curve (AUC) MKL-1 Replicate 3 [6, 24]: 467.2"
O=C(O)CC(C(=O)O)n1c(O)c(C2=c3cc(Br)ccc3=NC2=O)sc1=S (stereo not drawn) [BCL6 Inhibitor],–,–,–,–,–,–,–,–,–,–,–,–,–,–,–,–,–,–,–,–,Area under the dose-response curve (AUC) [1]: 512.5 and 484.7 and 473.4; Area under the dose-response curve (AUC) [2]: 493.8 and 494.8 and 466.7; Area under the dose-response curve (AUC) [3]: 531.4 and 497.2 and 476.9; Area under the dose-response curve (AUC) [4]: 463.7 and 453.9 and 421.4; Area under the dose-response curve (AUC) [5]: 463.9 and 441.3 and 491.7; Area under the dose-response curve (AUC) [6]: 525.6 and 554.1 and 496.0
O=C1Nc2cc(Br)ccc2/C1=C1/Nc2ccccc2/C1=N\O [BIO],481.8,449.1,449.8,490.0,435.9,463.9,533.5,491.3,474.9,266.6,275.6,251.6,419.0,405.4,424.1,450.0,447.7,422.6,–,–,–
CO/C1=C\C(C)=C\[C@@H](C)[C@@H](O)[C@@H](C)C/C(C)=C/C=C/[C@H](OC)[C@@H]([C@@H](C)[C@@H](O)[C@H](C)[C@@]2(O)C[C@@H](O)[C@H](C)[C@@H](C(C)C)O2)OC1=O [Bafilomycin A1],–,–,–,–,–,–,–,–,–,–,–,–,–,–,–,–,–,–,343.3,351.4,"Area under the dose-response curve (AUC) MCC13 Replicate 3 [1, 9]: 328.2; Area under the dose-response curve (AUC) MKL-2 Replicate 1 [2, 10]: 338.8; Area under the dose-response curve (AUC) MKL-2 Replicate 2 [2, 11]: 333.5; Area under the dose-response curve (AUC) MKL-2 Replicate 3 [2, 12]: 368.3; Area under the dose-response curve (AUC) WAGA Replicate 1 [3, 13]: 341.4; Area under the dose-response curve (AUC) WAGA Replicate 2 [3, 14]: 394.8; Area under the dose-response curve (AUC) WAGA Replicate 3 [3, 15]: 342.5; Area under the dose-response curve (AUC) UISO Replicate 1 [4, 16]: 306.5; Area under the dose-response curve (AUC) UISO Replicate 2 [4, 17]: 264.4; Area under the dose-response curve (AUC) UISO Replicate 3 [4, 18]: 311.8; Area under the dose-response curve (AUC) MCC26 Replicate 1 [5, 19]: 325.4; Area under the dose-response curve (AUC) MCC26 Replicate 2 [5, 20]: 330.5; Area under the dose-response curve (AUC) MCC26 Replicate 3 [5, 21]: 331.3; Area under the dose-response curve (AUC) MKL-1 Replicate 1 [6, 22]: 341.8; Area under the dose-response curve (AUC) MKL-1 Replicate 2 [6, 23]: 384.5; Area under the dose-response curve (AUC) MKL-1 Replicate 3 [6, 24]: 316.5"
